Reference: patent US9586978B2, “Anti-viral compounds” (AbbVie Inc., priority 2009, dated 2017)
Like-named read-outs stand apart in the source and are kept apart here.

Tests used:
[1] = tested on: HCV 1a replicon L31M, Y93H or Y93N mutant; assay: HCV 1a replicon assays in the presence of 40% HP, mutants; type: cell-based; conditions: versus Example 109 of the '301 application
[2] = AUC value (as defined above); type: in vivo
HCV genotype 1a replicon = HCV genotype 1a replicon assay; type: cell-based, Hepatitis C virus
Description: (§1) [drawing 14] employs a biphenyl linker between the imidazole moieties. See WO2008021927(BMS). The EC50 values of BMS-790052 against different HCV genotypes were shown by Nettles et al., “BMS-790052 is a First-in-class Potent Hepatitis C Virus (HCV) NS5A Inhibitor for Patients with Chronic HCV Infection: Results from a Proof-of-concept Study”, 59th Annual Meeting of the American Association for the Study of Liver Diseases (Oct. 31-Nov. 1, 2008, San Francisco, Calif.; www.natap.org/2008/AASLD/AASLD_06.htm). […] See also Gao et al., NATURE 465:96-100 (2010). The compounds in Table 1 use different linkers between the imidazole moieties. Table 1 depicts the EC50 values of these compounds when tested using respective replicon assays in the presence of 5% (v/v) fetal bovine serum (FBS).
(§2) Table 2 compares compounds containing unsubstituted benzimidazole to those containing halo-substituted benzimidazole. Anti-viral activities were assessed using wild-type replicons (e.g., 1b WT or 1a WT) as well as replicons containing specific NS5A mutations (e.g., 1b L28T, 1b Y93H, 1a L31V, 1a Y93C, 1a M28V, or 1a Q30E) in the absence of FBS.
(§3) Table 3 compares compounds with different linkers between the benzimidazole moieties. Anti-viral activities were determined using 1a and 1b replicon assays. “HP” refers to human plasma. […] As compared to the phenyl linker

HCV genotype 1b replicon = HCV genotype 1b replicon assay; type: cell-based, Hepatitis C virus
Description: as §1, §2, §3

HCV genotype 2a replicon = HCV genotype 2a replicon assay; type: cell-based, Hepatitis C virus
Description: as §1

HCV genotype 2b replicon = HCV genotype 2b replicon assay; type: cell-based, Hepatitis C virus
Description: as §1

HCV genotype 3a replicon = HCV genotype 3a replicon assay; type: cell-based, Hepatitis C virus
Description: as §1

HCV genotype 4a replicon = HCV genotype 4a replicon assay; type: cell-based, Hepatitis C virus
Description: as §1

[3] = tested on: HCV 1b replicon containing NS5A mutation Y93H; assay: HCV 1b Y93H replicon assay; type: cell-based, Hepatitis C virus; conditions: transient transfection assays
Method: as §2

[4] = tested on: HCV 2a, 2b, 3a and 4a replicon; assay: HCV 2a, 2b, 3a and 4a replicon assays in the absence of human plasma; type: cell-based; conditions: 3a and 4a replicons, absence of HP, versus Example 4.25
Method: The inhibitory effects of the compounds of the invention on HCV replication can be determined by measuring activity of the luciferase reporter gene. For example, replicon-containing cells can be seeded into 96 well plates at a density of 5000 cells per well in 100 μl DMEM containing 5% FBS. The following day compounds can be diluted in dimethyl sulfoxide (DMSO) to generate a 200× stock in a series of eight half-log dilutions. The dilution series can then be further diluted 100-fold in the medium containing 5% FBS. Medium with the inhibitor is added to the overnight cell culture plates already containing 100 μl of DMEM with 5% FBS. In assays measuring inhibitory activity in the presence of human plasma, the medium from the overnight cell culture plates can be replaced with DMEM containing 40% human plasma and 5% FBS. The cells can be incubated for three days in the tissue culture incubators after which time 30 μl of Passive Lysis buffer (Promega) can be added to each well, and then the plates are incubated for 15 minutes with rocking to lyse the cells. Luciferin solution (100 μl, Promega) can be added to each well, and luciferase activity can be measured with a Victor II luminometer (Perkin-Elmer). The percent inhibition of HCV RNA replication can be calculated for each compound concentration and the EC50 value can be calculated using nonlinear regression curve fitting to the 4-parameter logistic equation and GraphPad Prism 4 software.

HCV genotype 1a = conditions: observed by Nettles et al.; read-out: EC50 against HCV genotype 1a; cited from earlier work
HCV genotype 1b = conditions: observed by Nettles et al.; read-out: EC50 against HCV genotype 1b; cited from earlier work
HCV genotype 3a = conditions: observed by Nettles et al.; read-out: EC50 against HCV genotype 3a; cited from earlier work
HCV genotype 4a = conditions: observed by Nettles et al.; read-out: EC50 against HCV genotype 4a; cited from earlier work
HCV genotype 5a = conditions: observed by Nettles et al.; read-out: EC50 against HCV genotype 5a; cited from earlier work
different HCV genotypes = conditions: summary over genotypes, see Nettles et al.; cited from earlier work
HCV genotype 5a replicon = HCV genotype 5a replicon assay; type: cell-based, Hepatitis C virus; conditions: replicon assay in the presence of 5% (v/v) FBS
Description: as §1

HCV genotype 6a replicon = HCV genotype 6a replicon assay; type: cell-based, Hepatitis C virus
Description: as §1

[5] = Hepatitis C virus, 40% human plasma, Table 5, read-out: EC50 (nM, in the presence of 40% HP) 1a
[6] = Hepatitis C virus, 40% human plasma, Table 5, read-out: EC50 (nM, in the presence of 40% HP) 1b
[7] = Hepatitis C virus, absence of human plasma, Table 5, read-out: EC50 (nM, in the absence of HP) 2a
[8] = Hepatitis C virus, absence of human plasma, Table 5, read-out: EC50 (nM, in the absence of HP) 2b
[9] = Hepatitis C virus, read-out: EC50 (nM, in the absence of HP) 3a, absence of human plasma, Table 5
[10] = Hepatitis C virus, absence of human plasma, Table 5, read-out: EC50 (nM, in the absence of HP) 4a
[11] = replicon assay in the presence of 5% (v/v) FBS, read-out: EC50 (nM) 1a
[12] = replicon assay in the presence of 5% (v/v) FBS, read-out: EC50 (nM) 1b
[13] = replicon assay in the presence of 5% (v/v) FBS, read-out: EC50 (nM) 2a
[14] = replicon assay in the presence of 5% (v/v) FBS, read-out: EC50 (nM) 2b
[15] = read-out: EC50 (nM) 3a, replicon assay in the presence of 5% (v/v) FBS
[16] = replicon assay in the presence of 5% (v/v) FBS, read-out: EC50 (nM) 4a
[17] = read-out: EC50 (nM) 6a, replicon assay in the presence of 5% (v/v) FBS

## COC(=O)N[C@H](C(=O)N1CCC[C@H]1c1nc2cc([C@H]3CC[C@H](c4cc5[nH]c([C@@H]6CCCN6C(=O)[C@@H](NC(=O)OC)C(C)C)nc5cc4F)N3c3ccc(C(C)(C)C)cc3)c(F)cc2[nH]1)C(C)C [Example 6.1, methyl{(2S)-1-[(2S)-2-{5-[(2R,5R)-1-(4-tert-butylphenyl)-5-{5-fluoro-2-[(2S)-1-{(2S)-2-[(methoxycarbonyl)amino]-3-methylbutanoyl}pyrrolidin-2-yl]-1H-benzimidazol-6-yl}pyrrolidin-2-yl]-6-fluoro-1H-benzimidazol-2-yl}pyrrolidin-1-yl]-3-methyl-1-oxobutan-2-yl}carbamate]
[1]
  EC50 value, fold less than that of Example 109 of the '301 application: at least 5 fold
[2]; versus Example 109 of the '301 application
  AUC value, fold greater than that of Example 109 of the '301 application: about 9 fold

## COC(=O)N[C@H](C(=O)N1CCC[C@H]1c1nc2cc([C@H]3CC[C@H](c4ccc5[nH]c([C@@H]6CCCN6C(=O)[C@@H](NC(=O)OC)C(C)C)nc5c4)N3c3cc(F)c(N4CCC(c5ccccc5)CC4)c(F)c3)ccc2[nH]1)C(C)C [Example 5.1, methyl{(2S)-1-[(2S)-2-{5-[(2R,5R)-1-[3,5-difluoro-4-(4-phenylpiperidin-1-yl)phenyl]-5-{2-[(2S)-1-{(2S)-2-[(methoxycarbonyl)amino]-3-methylbutanoyl}pyrrolidin-2-yl]-1H-benzimidazol-5-yl}pyrrolidin-2-yl]-1H-benzimidazol-2-yl}pyrrolidin-1-yl]-3-methyl-1-oxobutan-2-yl}carbamate]
HCV genotype 1a replicon; [5]
  EC50: 0.1 nM
HCV genotype 1b replicon; [6]
  EC50: 0.2 nM
HCV genotype 2a replicon; [7]
  EC50: ≤ 0.05 nM
HCV genotype 2b replicon; [8]
  EC50: ≤ 0.05 nM
HCV genotype 3a replicon; [9]
  EC50: ≤ 0.05 nM
HCV genotype 4a replicon; [10]
  EC50: ≤ 0.05 nM
[3]
  EC50 fold less than that of Example 37 of US 2010/0317568 against the 1b Y93H variant: at least 10 fold
[4]
  EC50 values, fold less than those of Example 4.25: at least 50 fold
[2]; versus Example 2.9
  AUC value, fold greater than that of Example 2.9: about 30 fold

## COC(=O)N[C@H](C(=O)N1CCC[C@H]1c1ncc(-c2ccc(-c3ccc(-c4cnc([C@@H]5CCCN5C(=O)[C@@H](NC(=O)OC)C(C)C)[nH]4)cc3)cc2)[nH]1)C(C)C [BMS-790052]
HCV genotype 1a
  EC50: 0.05 nM
HCV genotype 1b
  EC50: 0.009 nM
HCV genotype 3a
  EC50: 0.127 nM
HCV genotype 4a
  EC50: 0.012 nM
HCV genotype 5a
  EC50: 0.033 nM
Different HCV genotypes
  EC50: ≤ 0.2 nM

## COC(=O)N[C@H](C(=O)N1CCC[C@H]1c1ncc(-c2ccc(C3CCC(c4cnc([C@@H]5CCCN5C(=O)[C@@H](NC(=O)OC)C(C)C)[nH]4)CC3)cc2)[nH]1)C(C)C (single isomer, unassigned) [drawing 17]
HCV genotype 1a replicon; [11]
  EC50: 0.71 nM
HCV genotype 1b replicon; [12]
  EC50: 0.06 nM
HCV genotype 2a replicon; [13]
  EC50: 9 nM
HCV genotype 2b replicon; [14]
  EC50: 0.4 nM
HCV genotype 3a replicon; [15]
  EC50: 2.3 nM
HCV genotype 4a replicon; [16]
  EC50: 0.04 nM
HCV genotype 5a replicon
  EC50: 0.08 nM
HCV genotype 6a replicon; [17]
  EC50: 0.5 nM

## COC(=O)N[C@H](C(=O)N1CCC[C@H]1c1ncc(-c2ccc(C3CCC(c4cnc([C@@H]5CCCN5C(=O)[C@@H](NC(=O)OC)C(C)C)[nH]4)CC3)cc2)[nH]1)C(C)C (single isomer, unassigned) [drawing 18]
HCV genotype 1a replicon; [11]
  EC50: > 10 nM
HCV genotype 1b replicon; [12]
  EC50: 8.5 nM
HCV genotype 2a replicon; [13]
  EC50: > 100 nM
HCV genotype 2b replicon; [14]
  EC50: > 10 nM
HCV genotype 3a replicon; [15]
  EC50: > 10 nM
HCV genotype 4a replicon; [16]
  EC50: 4 nM
HCV genotype 5a replicon
  EC50: > 10 nM
HCV genotype 6a replicon; [17]
  EC50: > 10 nM

## COC(=O)N[C@H](C(=O)N1CCC[C@H]1c1nc2cc([C@H]3CC[C@H](c4ccc5[nH]c([C@@H]6CCCN6C(=O)[C@@H](NC(=O)OC)C(C)C)nc5c4)N3c3ccc(N4CCC(c5ccccc5)CC4)c(F)c3)ccc2[nH]1)C(C)C [Example 3.20, methyl{(2S)-1-[(2S)-2-{5-[(2R,5R)-1-[3-fluoro-4-(4-phenylpiperidin-1-yl)phenyl]-5-{2-[(2S)-1-{(2S)-2-[(methoxycarbonyl)amino]-3-methylbutanoyl}pyrrolidin-2-yl]-1H-benzimidazol-5-yl}pyrrolidin-2-yl]-1H-benzimidazol-2-yl}pyrrolidin-1-yl]-3-methyl-1-oxobutan-2-yl}carbamate]
HCV genotype 1a replicon; [5]
  EC50: 0.5 nM
HCV genotype 1b replicon; [6]
  EC50: 0.6 nM
HCV genotype 2a replicon; [7]
  EC50: ≤ 0.05 nM
HCV genotype 2b replicon; [8]
  EC50: ≤ 0.05 nM
HCV genotype 3a replicon; [9]
  EC50: ≤ 0.05 nM
HCV genotype 4a replicon; [10]
  EC50: ≤ 0.05 nM
[4]
  EC50 values, fold less than those of Example 4.25: at least 15 fold

## COC(=O)N[C@H](C(=O)N1CCC[C@H]1c1ncc(C2=CCC(c3ccc(-c4cnc([C@@H]5CCCN5C(=O)[C@@H](NC(=O)OC)C(C)C)[nH]4)cc3)CC2)[nH]1)C(C)C (stereo partly drawn)
HCV genotype 1a replicon; Hepatitis C virus, replicon assay in the presence of 5% (v/v) FBS, read-out: EC50 (nM) 1a
  EC50: 0.12 nM
HCV genotype 1b replicon; Hepatitis C virus, replicon assay in the presence of 5% (v/v) FBS, read-out: EC50 (nM) 1b
  EC50: 0.03 nM
HCV genotype 2a replicon; Hepatitis C virus, replicon assay in the presence of 5% (v/v) FBS, read-out: EC50 (nM) 2a
  EC50: 16 nM
HCV genotype 2b replicon; Hepatitis C virus, replicon assay in the presence of 5% (v/v) FBS, read-out: EC50 (nM) 2b
  EC50: 0.09 nM
HCV genotype 3a replicon; Hepatitis C virus, read-out: EC50 (nM) 3a, replicon assay in the presence of 5% (v/v) FBS
  EC50: 1.5 nM
HCV genotype 4a replicon; Hepatitis C virus, replicon assay in the presence of 5% (v/v) FBS, read-out: EC50 (nM) 4a
  EC50: 0.03 nM
HCV genotype 5a replicon; Hepatitis C virus
  EC50: 0.05 nM
HCV genotype 6a replicon; Hepatitis C virus, read-out: EC50 (nM) 6a, replicon assay in the presence of 5% (v/v) FBS
  EC50: 0.5 nM
